Assay results published in the supplement of paper PMC4862054.
Values joined by “and” are separate entries in the source; they are usually repeats but may differ in a detail not shown here. Identical values can stand only once.

Key:
Details in all cases: incubation time: 72 h
MDA-MB-468 [1] = experiment: drug sensitivity score (DSS), CellTiter-Blue viability (DSS (AUC-based score)); higher = stronger viability inhibition; extreme values may be limits of the assay
Description: (§1)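 DSRT with the CellTiter-Blue (resazurin reduction) viability readout, fluorescence 560/590 nm, 72 h incubation. Plates were normalised to DMSO and benzethonium chloride controls. DSS is computed from the area under the fitted dose-response curve (5 or 9 concentrations).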

MFM-223 = experiment: as above
Description: as §1

CAL-85-1 [2] = experiment: as above
Description: as §1

BT-549 = experiment: as above
Description: as §1

CAL-120 [3] = experiment: as above
Description: as §1

HCC1937 [4] = experiment: as above
Description: as §1

MDA-MB-231 [5] = experiment: as above
Description: as §1

HCC1599 [6] = experiment: as above
Description: as §1

CAL-148 [7] = experiment: as above
Description: as §1

CAL-51 = experiment: as above
Description: as §1

HCC1143 [8] = experiment: as above
Description: as §1

BT-474 = experiment: as above
Description: as §1

DU-4475 = experiment: as above
Description: as §1

MDA-MB-453 = experiment: as above
Description: as §1

MDA-MB-468 [9] = experiment: normalised viability (% of control), CellTiter-Blue; higher = more viable cells (about 100 = DMSO control)
Outline: (§2)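 Compound dissolved in 5 µl medium was pre-loaded into 384-well plates, and breast cancer cell lines in 20 µl suspension were seeded on top and incubated 72 h. After adding 2.5 µl CellTiter-Blue reagent for 2 h at 37 °C, fluorescence was read at 560/590 nm. Plates were normalised to vehicle (100) and a positive kill control (0), with Z'-factor quality control. Each value is normalised viability at a single listed concentration from the series.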

CAL-85-1 [10] = experiment: as above
Outline: as §2

CAL-120 [11] = experiment: as above
Outline: as §2

Hs578T = experiment: as above
Outline: as §2

HCC1937 [12] = experiment: as above
Outline: as §2

MDA-MB-231 [13] = experiment: as above
Outline: as §2

HDQ-P1 = experiment: as above
Outline: as §2

HCC1599 [14] = experiment: as above
Outline: as §2

CAL-148 [15] = experiment: as above
Outline: as §2

MDA-MB-436 = experiment: as above
Outline: as §2

HCC1143 [16] = experiment: as above
Outline: as §2

COC(=O)c1ccc2c(c1)NC(=O)/C2=C(\Nc1ccc(N(C)C(=O)CN2CCN(C)CC2)cc1)c1ccccc1 [BIBF 1120]
Details | drug sensitivity score
BT-474 | 3.34
BT-549 | 3.02
CAL-51 | 5.59
CAL-85-1 [2] | 1.29
CAL-120 [3] | 6.55
CAL-148 [7] | 0
DU-4475 | 2.02
HCC1143 [8] | 0
HCC1599 [6] | 0
HCC1937 [4] | 0
MDA-MB-231 [5] | 4.3
MDA-MB-453 | 5.53
MDA-MB-468 [1] | 2.89
MFM-223 | 9.32

normalised viability [%]
Details | 3 nM | 10 nM | 30 nM | 100 nM | 1000 nM | 10000 nM
CAL-85-1 [10] | 97.1 | – | 98.3 | 99.6 | – | –
CAL-120 [11] | – | 82.6 | – | – | 75.5 | 29.7
CAL-148 [15] | 93.5 | – | 99 | 97.7 | – | –
HCC1143 [16] | – | 91 | – | – | 103 | 56.7
HCC1599 [14] | – | 90.9 | – | – | 95.9 | 65.1
HCC1937 [12] | – | 144 | – | – | 130 | 84
HDQ-P1 | 124 | – | 117 | 124 | – | –
Hs578T | – | 102 | – | – | 111 | 34
MDA-MB-231 [13] | – | 97.6 | – | – | 120 | 2.46
MDA-MB-436 | – | 120 | – | – | 122 | 43.8
MDA-MB-468 [9] | – | 108 | – | – | 112 | 17.6

COCC1(CO)C(=O)C2CCN1CC2 (configuration not stated) [Prima-1 Met]
Details | drug sensitivity score
BT-474 | 2.5
BT-549 | 0
CAL-51 | 0
CAL-85-1 [2] | 0
CAL-120 [3] | 0
CAL-148 [7] | 0
DU-4475 | 0
HCC1143 [8] | 0
HCC1599 [6] | 0
HCC1937 [4] | 3.72
MDA-MB-231 [5] | 0
MDA-MB-453 | 0
MDA-MB-468 [1] | 0
MFM-223 | 0

normalised viability [%]
Details | 3 nM | 10 nM | 30 nM | 100 nM | 1000 nM | 10000 nM
CAL-85-1 [10] | 91.3 | – | 78.1 | 103 | – | –
CAL-120 [11] | – | 85 | – | – | 99.8 | 102
CAL-148 [15] | 93.3 | – | 93 | 89.2 | – | –
HCC1143 [16] | – | 82.3 | – | – | 73.2 | 75.2
HCC1599 [14] | – | 93.4 | – | – | 120 | 106
HCC1937 [12] | – | 97.8 | – | – | 73.8 | 75.4
HDQ-P1 | 91.3 | – | 81.2 | 74.4 | – | –
Hs578T | – | 110 | – | – | 106 | 88.9
MDA-MB-231 [13] | – | 95.4 | – | – | 92.7 | 88.7
MDA-MB-436 | – | 86.9 | – | – | 81.9 | 104
MDA-MB-468 [9] | – | 104 | – | – | 115 | 104

COc1cc2ncnc(Nc3ccc(F)c(Cl)c3)c2cc1OCCCN1CCOCC1 [Gefitinib]
Details | drug sensitivity score
BT-474 | 9.05 and 8.8
BT-549 | 2.48 and 0.865
CAL-51 | 0
CAL-85-1 [2] | 8.75 and 10.2
CAL-148 [7] | 2.15 and 4.81
DU-4475 | 0
HCC1143 [8] | 0
HCC1599 [6] | 2.82 and 3.43
HCC1937 [4] | 0
MDA-MB-453 | 3.14 and 5.26
MDA-MB-468 [1] | 9.52 and 7.51
MFM-223 | 0

Details | normalised viability
CAL-85-1 [10], 3 nM | 90.7% and 85.5%
CAL-85-1 [10], 30 nM | 84.7% and 89.6%
CAL-85-1 [10], 100 nM | 88.5% and 85.5%
CAL-120 [11], 10 nM | 76.8% and 88.1%
CAL-120 [11], 1000 nM | 76% and 85.9%
CAL-120 [11], 10000 nM | 60% and 62.1%
CAL-148 [15], 3 nM | 83% and 87.9%
CAL-148 [15], 30 nM | 96.2% and 85.9%
CAL-148 [15], 100 nM | 94.4% and 90.2%
HCC1143 [16], 10 nM | 65.4% and 86.2%
HCC1143 [16], 1000 nM | 64.3% and 84.5%
HCC1143 [16], 10000 nM | 68.2% and 68.7%
HCC1599 [14], 10 nM | 90.8% and 106%
HCC1599 [14], 1000 nM | 75.2% and 81.4%
HCC1599 [14], 10000 nM | 64.6% and 70.1%
HCC1937 [12], 1000 nM | 101% and 100%
HCC1937 [12], 10000 nM | 61.1% and 79.5%
HDQ-P1, 3 nM | 88.5% and 105%
HDQ-P1, 30 nM | 87% and 110%
HDQ-P1, 100 nM | 91% and 109%
Hs578T, 10 nM | 100% and 105%
Hs578T, 1000 nM | 91.4% and 112%
Hs578T, 10000 nM | 77.4% and 74.4%
MDA-MB-231 [13], 10 nM | 83.8% and 98.3%
MDA-MB-231 [13], 1000 nM | 94.6% and 114%
MDA-MB-231 [13], 10000 nM | 81.1% and 77%
MDA-MB-436, 10 nM | 90.6% and 82.3%
MDA-MB-436, 1000 nM | 88.3% and 81.4%
MDA-MB-436, 10000 nM | 69.9% and 62%
MDA-MB-468 [9], 10 nM | 97.6% and 107%
MDA-MB-468 [9], 1000 nM | 57.8% and 65.9%
MDA-MB-468 [9], 10000 nM | 38.7% and 38.4%

CCc1c2c(nc3ccc(OC(=O)N4CCC(N5CCCCC5)CC4)cc13)-c1cc3c(c(=O)n1C2)COC(=O)[C@]3(O)CC [Irinotecan]
Details | drug sensitivity score
BT-474 | 0
CAL-51 | 6.14 and 4.1
CAL-85-1 [2] | 2.57 and 1.55
CAL-120 [3] | 5.49 and 3.99
CAL-148 [7] | 9.3 and 7.24
DU-4475 | 7.9 and 5.68
HCC1937 [4] | 9.68 and 9.91
MDA-MB-468 [1] | 6.9 and 5.16

Details | normalised viability
CAL-85-1 [10], 3 nM | 94.6% and 96.1%
CAL-85-1 [10], 30 nM | 78.8% and 92.5%
CAL-85-1 [10], 100 nM | 86.4% and 103%
CAL-120 [11], 10 nM | 83.3% and 96.8%
CAL-120 [11], 1000 nM | 68.2% and 89.1%
CAL-120 [11], 10000 nM | 47.4% and 55.8%
CAL-148 [15], 3 nM | 77.4% and 98.8%
CAL-148 [15], 30 nM | 90.3% and 101%
CAL-148 [15], 100 nM | 80.5% and 99.7%
HCC1143 [16], 10 nM | 74.2% and 87.3%
HCC1143 [16], 1000 nM | 91.4% and 95.9%
HCC1143 [16], 10000 nM | 47.7% and 62.6%
HCC1599 [14], 10 nM | 81.2% and 102%
HCC1599 [14], 1000 nM | 74.3% and 81.7%
HCC1599 [14], 10000 nM | 57.8% and 78.1%
HCC1937 [12], 10 nM | 110% and 91.4%
HCC1937 [12], 1000 nM | 54.7% and 60.4%
HCC1937 [12], 10000 nM | 27.8% and 10.4%
HDQ-P1, 3 nM | 109% and 101%
HDQ-P1, 30 nM | 99.4% and 104%
HDQ-P1, 100 nM | 99.8% and 101%
Hs578T, 10 nM | 98.6% and 100%
Hs578T, 1000 nM | 83% and 95.2%
MDA-MB-231 [13], 10 nM | 85.2% and 94.5%
MDA-MB-231 [13], 1000 nM | 84.7% and 89.4%
MDA-MB-231 [13], 10000 nM | 72.8% and 78.7%
MDA-MB-436, 10 nM | 89.1% and 93%
MDA-MB-436, 1000 nM | 79.6% and 92.3%
MDA-MB-468 [9], 10 nM | 106% and 105%
MDA-MB-468 [9], 1000 nM | 76% and 87.3%
MDA-MB-468 [9], 10000 nM | 35.5% and 42.8%
